From US20080267882A1, “Imaging compounds, methods of making imaging compounds, methods of imaging, therapeutic compounds, methods of making therapeutic compounds, and methods of therapy” (Stanford University, priority 2007, published 2008)
Like-named read-outs stand apart in the source and are kept apart here. Blank lines part the entries; values can stand above or below the compound they belong to.

How the values were obtained:
U87MG cells = assay: cell adhesion assay on vitronectin coated plates; type: cell-based, human; conditions: for anti-adhesion multivalent enhancement ratio (MVE): IC50 of RGD monomer divided by IC50 of RGD multimer
Protocol: Ninety-six well plates were coated with 2 μg/mL of fibronectin or vitronectin (Sigma-Aldrich) in PBS at 4° C. overnight and treated with 2% bovine serum albumin (BSA) for 1 h at 37° C. U87MG cells (human glioblastoma, ATCC; 2×10^5 cells/mL) with various concentrations of RGD multimers (50 nM, 200 nM, 800 nM) in 100 μL serum-free Dulbecco's modified Eagle's medium (DMEM) containing 0.1% BSA were incubated for 20 min at 37° C. The resulting mixture was added to the plates and incubated for 1 h at 37° C. Plates treated with BSA only were used as negative control. After removal of the medium by aspiration, 0.04% crystal violet solution was added and incubated for 10 min at room temperature. The wells were washed three times with PBS and 20 μL Triton X-100 were added for permeabilization. Distilled water (80 μL) was then added and the number of adherent cells was assessed with a microplate reader (Tecan; measurement wavelength: 550 nm; reference wavelength: 630 nm).

integrin αvβ3 = molecular target: T1, integrin αvβ3 (Homo sapiens, UniProt P05106+P06756); assay: competitive cell binding assay using ^125I-echistatin on U87MG cells; conditions: for receptor binding multivalent enhancement ratio (MVE): IC50 of RGD monomer divided by IC50 of RGD multimer
T1 construct: evaluated using U87MG cells (integrin αvβ3-positive); endogenous in cells; host or cells: U87MG human glioblastoma cells (ATCC)
Protocol: Experiments were performed on U87MG human glioblastoma cells with triplicate samples as previously reported.
In vitro integrin αvβ3-binding affinities and specificities of RGD4, PRGD4 and FPRGD4 were assessed via displacement cell binding assays using ^125I-echistatin as the integrin αvβ3-specific radioligand. Experiments were performed on U87MG human glioblastoma cells by the method previously described (J Nucl Med. 2005;46:1707-1718 J Nucl Med. 2006;47:1172-1180, which is incorporated herein by reference for the corresponding discussion). […] Experiments were performed with triplicate samples.
Experiments were performed with triplicate samples.
In vitro integrin-binding affinity and specificity of RGD multimers and DOTA-RGD multimers were assessed via competitive cell binding assays using ^125I-echistatin as the integrin αvβ3-specific radioligand (J Nucl Med. 2005;46:1707-1718, which is incorporated herein by reference for the corresponding discussion). […] Experiments were performed with triplicate samples.

in vivo = conditions: mouse, iv, 3.7 MBq, total radioactivity, U87MG tumor uptake
Protocol: (§1) PET scans and image analysis were performed using a microPET R4 rodent model scanner (Siemens Medical Solutions) as previously reported (J Nucl Med 2006;47:113-121 and J Nucl Med 2005;46:1707-1718, each of which is incorporated herein by reference for the corresponding discussion). Each mouse was tail-vein injected with about 3.7 MBq (100 μCi) of ^18F-FPRGD2 under isoflurane anesthesia. The 30-min dynamic scan (1×30 s, 4×1 min, 1×1.5 min, 4×2 min, 1×2.5 min, 4×3 min, total of 15 frames) was started 1 min after injection. Five min static PET images were also acquired at 1 h and 2 h post-injection (p.i.). The images were reconstructed by a 2-dimensional ordered-subsets expectation maximum (OSEM) algorithm and no correction was applied for attenuation or scatter.
(§2) PET scans and image analysis were performed using a microPET R4 rodent model scanner (Siemens Medical Solutions) as previously reported. For U87MG tumor model, mice (n=3) were tail-vein injected with about 3.7 MBq (100 μCi) of ^18F-FPRGD4 under isoflurane anesthesia and then subjected to a 30-min dynamic scan (1×30 s, 4×1 min, 1×1.5 min, 4×2 min, 1×2.5 min, 4×3 min, total of 15 frames) starting from 1 min p.i. Five min static PET images were also acquired at 1, 2, and 3 h p.i. The images were reconstructed by 2-dimensional ordered-subsets expectation maximum (OSEM) algorithm. No attenuation or scatter correction was applied. […] The 5-min static PET scans was then acquired at 30 min and 1 h p.i. Multiple time point static scans were also obtained for orthotopic MDA-MB-435, c-neu oncomouse, and subcutaneous DU145 tumor models after tail-vein injected with 3.7 MBq of ^18F-FPRGD4.
(§3) For each microPET scan, regions of interest (ROIs) were drawn over the tumor, normal tissue, and major organs by using vendor software (ASI Pro 5.2.4.0) on decay-corrected whole-body coronal images. The maximum radioactivity concentration (accumulation) within a tumor or an organ was obtained from mean pixel values within the multiple ROI volume, which were converted to counts/mL/min by using a conversion factor. Assuming a tissue density of 1 g/mL, the ROIs were converted to counts/g/min and then divided by the administered activity to obtain an imaging ROI-derived % ID/g. […]
(§4) PET scans and image analysis were performed using a microPET R4 rodent model scanner (Siemens Medical Solutions) as previously reported (J Nucl Med. 2005;46:1707-1718 and J Nucl Med. 2006;47:113-121, each of which is incorporated herein by reference for the corresponding discussion). About 9.3 MBq of ^64Cu-DOTA-RGD multimer was intravenously injected into each mouse under isoflurane anesthesia. Five minute static scans were acquired at 30 min, 1 h, 2 h, 6 h, and 20 h p.i. The images were reconstructed by a 2-dimensional ordered-subsets expectation maximum (OSEM) algorithm and no correction was applied for attenuation and scatter. For each microPET scan, regions of interest (ROIs) were drawn over the tumor, normal tissue, and major organs on decay-corrected whole-body coronal images. The radioactivity concentration (accumulation) within a tumor was obtained from the maximum value within the multiple ROIs and then converted to % ID/g.
(§5) PET scans and image analysis were performed using a microPET R4 rodent model scanner (Siemens Medical Solutions) as previously reported (J Nucl Med. 2006;47:113-21 and J Nucl Med. 2005;46:1707-18, which is incorporated herein by reference for the corresponding discussion). […] The 60-min dynamic scan (5×1 min, 10×3 min, 5×5 min, total of 20 frames) was started 1 min after injection. A 2 h time point static scan was also acquired after the 60 min dynamic scan. Five min static PET images were also acquired separately at 30 min, 1 h and 2 h time points post-injection (p.i.) for another set of tumor-bearing mice (n=3/tracer). The images were reconstructed by a 2-dimensional ordered-subsets expectation maximum (OSEM) algorithm and no correction was necessary for attenuation or scatter correction. […]

U87MG tumor-bearing mice = assay: in vivo; conditions: mouse
Protocol: as §1, §2, §3, §4, §5

[1] = mouse, in vivo
Protocol: A U87MG tumor mouse was intravenously injected with 3.7 MBq of ^18F-FPRGD2. At 1 h after injection, the mouse was sacrificed, the blood, urine, liver, kidneys, and the U87MG tumor were collected and metabolite analysis was carried out as previously reported (J Nucl Med 2006;47: 113-121 and J Nucl Med 2006;47:1172-1180, each of which is incorporated herein by reference for the corresponding discussion). In brief, blood sample was immediately centrifuged for 5 min at 13,200 rpm. Other tissues were homogenized and then centrifuged for 5 min at 13,200 rpm. The supernatant was each passed through a C18 Sep-Pak cartridge. The urine sample was directly diluted with 1 mL of PBS and passed through a C18 Sep-Pak cartridge. The cartridges were each washed with 2 mL of water and eluted with 2 mL of ACN containing 0.1% TFA. The ACN eluent was concentrated and injected onto the analytical HPLC. The eluent was collected with a fraction collector (0.5 min/fraction) and the radioactivity of each fraction was measured with the γ-counter.
The metabolic stability of ^18F-FPTA-RGD2 was evaluated in an athymic nude mouse bearing a U87MG tumor. Sixty min after intravenous injection of 2 MBq of ^18F-FPTA-RGD2, the mouse was sacrificed and relevant organs were harvested. The blood was collected and immediately centrifuged for 5 min at 13,200 rpm. Liver, kidneys and tumor were homogenized and then centrifuged for 5 min at 13,200 rpm. After removal of the supernatants, the pellets were washed with 1 mL PBS. For each sample, supernatants of both centrifugation steps of blood, liver, and kidneys were combined and passed through C18 Sep-Pak cartridges. The urine sample was directly diluted with 1 mL of PBS and passed through a C18 Sep-Pak cartridge. The cartridges were each washed with 2 mL of water and eluted with 2 mL of ACN containing 0.1% TFA. After evaporation of the solvent, the residues were redissolved in 1 mL PBS and were injected onto the analytical HPLC. The eluent was collected with a fraction collector (0.5 min/fraction) and the radioactivity of each fraction was measured with the γ-counter.

[2] = Example 4, n=3, read-out: IC50 (inhibition of ^125I-echistatin binding to U87MG cells)

Compound: N=C(N)NCCC[C@@H]1NC(=O)[C@H](CCCCNC(=O)CC[C@H](NC(=O)CC[C@H](N)C(=O)N[C@@H](CCC(=O)NCCCC[C@@H]2NC(=O)[C@@H](Cc3ccc(O)cc3)NC(=O)[C@H](CC(=O)O)NC(=O)CNC(=O)[C@H](CCCNC(=N)N)NC2=O)C(=O)NCCCC[C@@H]2NC(=O)[C@@H](Cc3ccc(O)cc3)NC(=O)[C@H](CC(=O)O)NC(=O)CNC(=O)[C@H](CCCNC(=N)N)NC2=O)C(=O)NCCCC[C@@H]2NC(=O)[C@@H](Cc3ccc(O)cc3)NC(=O)[C@H](CC(=O)O)NC(=O)CNC(=O)[C@H](CCCNC(=N)N)NC2=O)NC(=O)[C@@H](Cc2ccc(O)cc2)NC(=O)[C@H](CC(=O)O)NC(=O)CNC1=O [RGD4, E{E[c(RGDyK)]2}2]
anti-adhesion multivalent enhancement ratio (MVE) (U87MG cells): 8.4
IC50 (U87MG cells; vitronectin coated plates, n=4, read-out: calculated IC50 (inhibition of U87MG cell adhesion)): 320 nM
IC50 (integrin αvβ3; Example 2, n=3, read-out: IC50 (inhibition of ^125I-echistatin binding to U87MG cells)): 39.1 ± 5.5 nM
fold higher integrin αvβ3 avidity than the RGD dimer (integrin αvβ3; Example 4): about 3 fold
IC50 (integrin αvβ3; [2]): 35 nM
receptor binding multivalent enhancement ratio (MVE) (integrin αvβ3): 5.9

Compound: N=C(N)NCCC[C@@H]1NC(=O)[C@H](CCCCNC(=O)CC[C@H](NC(=O)CC[C@H](NC(=O)CC[C@H](N)C(=O)N[C@@H](CCC(=O)N[C@@H](CCC(=O)NCCCC[C@@H]2NC(=O)[C@@H](Cc3ccc(O)cc3)NC(=O)[C@H](CC(=O)O)NC(=O)CNC(=O)[C@H](CCCNC(=N)N)NC2=O)C(=O)NCCCC[C@@H]2NC(=O)[C@@H](Cc3ccc(O)cc3)NC(=O)[C@H](CC(=O)O)NC(=O)CNC(=O)[C@H](CCCNC(=N)N)NC2=O)C(=O)N[C@@H](CCC(=O)NCCCC[C@@H]2NC(=O)[C@@H](Cc3ccc(O)cc3)NC(=O)[C@H](CC(=O)O)NC(=O)CNC(=O)[C@H](CCCNC(=N)N)NC2=O)C(=O)NCCCC[C@@H]2NC(=O)[C@@H](Cc3ccc(O)cc3)NC(=O)[C@H](CC(=O)O)NC(=O)CNC(=O)[C@H](CCCNC(=N)N)NC2=O)C(=O)N[C@@H](CCC(=O)NCCCC[C@@H]2NC(=O)[C@@H](Cc3ccc(O)cc3)NC(=O)[C@H](CC(=O)O)NC(=O)CNC(=O)[C@H](CCCNC(=N)N)NC2=O)C(=O)NCCCC[C@@H]2NC(=O)[C@@H](Cc3ccc(O)cc3)NC(=O)[C@H](CC(=O)O)NC(=O)CNC(=O)[C@H](CCCNC(=N)N)NC2=O)C(=O)NCCCC[C@@H]2NC(=O)[C@@H](Cc3ccc(O)cc3)NC(=O)[C@H](CC(=O)O)NC(=O)CNC(=O)[C@H](CCCNC(=N)N)NC2=O)NC(=O)[C@@H](Cc2ccc(O)cc2)NC(=O)[C@H](CC(=O)O)NC(=O)CNC1=O [RGD octamer, E(E{E[c(RGDyK)]2}2)2]
anti-adhesion multivalent enhancement ratio (MVE) (U87MG cells): 25.6
times as effective as the RGD monomer (U87MG cells; vitronectin coated plates): 27 times
further fold increase of integrin avidity over RGD tetramer (integrin αvβ3; Example 4): 3 fold
IC50 (integrin αvβ3; Example 4, introduction, read-out: IC50 value (αvβ3 integrin binding)): 10 nM
IC50 (integrin αvβ3; [2]): 10 nM
receptor binding multivalent enhancement ratio (MVE) (integrin αvβ3): 20.3

Compound: ^18F-fluoro-PEG-triazole-E(RGDyK)2 [^18F-FPTA-RGD2]
extraction efficiency (radioactivity in the supernatant) [1]: 86-99%
non-retained fraction (activity not trapped on C18 cartridges) [1]: 1-41%

More lines, now with the values ahead:

tissue uptake at 0.5 h (in vivo; athymic nude): 1.9 ± 0.2 %ID/g
tissue uptake at 1 h (in vivo; athymic nude): 1.4 ± 0.2 %ID/g
tissue uptake at 2 h (in vivo; athymic nude): 1.1 ± 0.1 %ID/g
tissue uptake at 0.25 h (in vivo; nude): 2.35 %ID/g
tissue uptake at 0.5 h (in vivo; nude): 1.84 %ID/g
tissue uptake at 1 h (in vivo; nude): 1.47 %ID/g
tissue uptake at 2 h (in vivo; nude): 1.12 %ID/g
U87MG tumor uptake (U87MG tumor-bearing mice; iv, 3.7 MBq, 5 min): 3.24 % ID/g
Compound: N=C(N)NCCC[C@@H]1NC(=O)[C@H](CCCCNC(=S)Nc2ccc(C[C@H]3CN(CC(=O)O)CCN(CC(=O)O)CCN3CC(=O)O)cc2)NC(=O)[C@@H](Cc2ccc(O)cc2)NC(=O)[C@H](CC(=O)O)NC(=O)CNC1=O [^68Ga-NOTA-RGD1, metal not drawn]

residence time for kidneys (U87MG tumor-bearing mice): 0.029 h
Compound: ^18F-FB-E[c(RGDyK)]2 [^18F-FRGD2, reference compound]
